According to PubChem BioAssay AID1963865 (Molecular Pharmacology Branch, DTP, NCI, 2024):

System: KRAS PDC multicell spheroid viability
Assay: Anticancer human tumor 825966-067-R-J1-PDC patient-derived colon carcinoma cell line growth inhibition [KRAS2]
Details: for IC50: curve of first compound; for viability, T/C: stronger effect = lower value
Outline: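 Combination screen of spheroid viability in tumor-cell co-cultures with endothelial (HUVEC) and mesenchymal stem cell stroma. Each agent was tested in half-log dilutions, topping at clinical Cmax or at 10 microM without a known Cmax.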

[1] = second compound 0.0316 µM, first compound 0.0316 µM
[2] = second compound 0.0316 µM, first compound 0.1 µM
[3] = second compound 0.0316 µM, first compound 0.316 µM
[4] = second compound 0.0316 µM, first compound 1 µM
[5] = second compound 0.0316 µM, first compound 3.16 µM
[6] = second compound 0.0316 µM, first compound 10 µM
[7] = second compound 0.1 µM, first compound 0.0316 µM
[8] = second compound 0.1 µM, first compound 0.1 µM
[9] = second compound 0.1 µM, first compound 0.316 µM
[10] = second compound 0.1 µM, first compound 1 µM
[11] = second compound 0.1 µM, first compound 3.16 µM
[12] = second compound 0.1 µM, first compound 10 µM
[13] = second compound 0.316 µM, first compound 0.0316 µM
[14] = second compound 0.316 µM, first compound 0.1 µM
[15] = second compound 0.316 µM, first compound 0.316 µM
[16] = second compound 0.316 µM, first compound 1 µM
[17] = second compound 0.316 µM, first compound 3.16 µM
[18] = second compound 0.316 µM, first compound 10 µM
[19] = second compound 1 µM, first compound 0.0316 µM
[20] = second compound 1 µM, first compound 0.1 µM
[21] = second compound 1 µM, first compound 0.316 µM
[22] = second compound 1 µM, first compound 1 µM
[23] = second compound 1 µM, first compound 3.16 µM
[24] = second compound 1 µM, first compound 10 µM
[25] = second compound 3.16 µM, first compound 0.0316 µM
[26] = second compound 3.16 µM, first compound 0.1 µM
[27] = second compound 3.16 µM, first compound 0.316 µM
[28] = second compound 3.16 µM, first compound 1 µM
[29] = second compound 3.16 µM, first compound 3.16 µM
[30] = second compound 3.16 µM, first compound 10 µM
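Note: spheroids exposed to compounds for 7 days.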
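Throughout, for viability, T/C: 100% = DMSO vehicle control viability.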

Compound | IC50 (second compound 0.0316 µM) [µM] | IC50 (second compound 0.1 µM) [µM] | IC50 (second compound 0.316 µM) [µM] | IC50 (second compound 1 µM) [µM] | IC50 (second compound 3.16 µM) [µM] | viability, T/C [1] [%] | viability, T/C [2] [%] | viability, T/C [3] [%] | viability, T/C [4] [%] | viability, T/C [5] [%] | viability, T/C [6] [%] | viability, T/C [7] [%] | viability, T/C [8] [%] | viability, T/C [9] [%] | viability, T/C [10] [%] | viability, T/C [11] [%] | viability, T/C [12] [%] | viability, T/C [13] [%] | viability, T/C [14] [%] | viability, T/C [15] [%] | other results
COC(=O)c1ccc2c(C(=Nc3ccc(N(C)C(=O)CN4CCN(C)CC4)cc3)c3ccccc3)c(O)[nH]c2c1 + C=CC(=O)N1CCN(c2nc(OCC3CCCN3C)nc3c2CCN(c2cccc4cccc(C)c24)C3)CC1CC#N | 0.591 | 0.843 | 0.54 | 0.5 | 0.131 | 78.2 | 94.9 | 75 | 28.2 | 0.37 | 0.12 | 107 | 84.5 | 96.4 | 42 | 0.21 | 0.13 | 75.4 | 83.7 | 95.8 | viability, T/C [16]: 9.82%; viability, T/C [17]: 0.13%; viability, T/C [18]: 0.12%; viability, T/C [19]: 78.8%; viability, T/C [20]: 87.2%; viability, T/C [21]: 73.9%; viability, T/C [22]: 13.7%; viability, T/C [23]: 1.46%; viability, T/C [24]: 0.22%; viability, T/C [25]: 87%; viability, T/C [26]: 27.7%; viability, T/C [27]: 65.5%; viability, T/C [28]: 10.5%; viability, T/C [29]: 0.29%; viability, T/C [30]: 0.2%
COc1cc(Nc2ncc3c(n2)-c2ccc(Cl)cc2C(c2c(F)cccc2OC)=NC3)ccc1C(=O)O + C=CC(=O)N1CCN(c2nc(OCC3CCCN3C)nc3c2CCN(c2cccc4cccc(C)c24)C3)CC1CC#N | > 10 | > 10 | > 10 | > 10 | 4.43 | 136 | 129 | 144 | 137 | 138 | 127 | 129 | 142 | 123 | 129 | 122 | 140 | 124 | 154 | 112 | viability, T/C [16]: 134%; viability, T/C [17]: 129%; viability, T/C [18]: 141%; viability, T/C [19]: 104%; viability, T/C [20]: 150%; viability, T/C [21]: 153%; viability, T/C [22]: 135%; viability, T/C [23]: 121%; viability, T/C [24]: 114%; viability, T/C [25]: 45%; viability, T/C [26]: 130%; viability, T/C [27]: 73.1%; viability, T/C [28]: 104%; viability, T/C [29]: 67.1%; viability, T/C [30]: 8.84%
O=C(c1cc(Cc2n[nH]c(=O)c3ccccc23)ccc1F)N1CCN(C(=O)C2CC2)CC1 + C=CC(=O)N1CCN(c2nc(OCC3CCCN3C)nc3c2CCN(c2cccc4cccc(C)c24)C3)CC1CC#N | > 10 | > 10 | > 10 | > 10 | > 10 | 100 | 119 | 96.8 | 77.1 | 98.4 | 80.2 | 98.7 | 100 | 91.8 | 92.3 | 109 | 95.4 | 94.7 | 91.2 | 104 | viability, T/C [16]: 94.1%; viability, T/C [17]: 96.2%; viability, T/C [18]: 97.9%; viability, T/C [19]: 87.1%; viability, T/C [20]: 94.8%; viability, T/C [21]: 91%; viability, T/C [22]: 93.2%; viability, T/C [23]: 99.6%; viability, T/C [24]: 125%; viability, T/C [25]: 96.3%; viability, T/C [26]: 108%; viability, T/C [27]: 111%; viability, T/C [28]: 110%; viability, T/C [29]: 123%; viability, T/C [30]: 109%
